From publication PMC3608651, “A Broad Profile of Co-Dominant Epitopes Shapes the Peripheral Mycobacterium tuberculosis Specific CD8+ T-Cell Immune Response in South African Patients with Active Tuberculosis” (PLoS ONE, 2013)
Read-outs that look alike come from different tables or passages of the source.

Tests used:
Format in all cases: binding
[1] = biological target: HLA-C*07:01 (Homo sapiens, UniProt P10321, K90N/S123Y); details: duplicated experiments, positive binder >40%
[2] = biological target: T1, HLA-B*58:01 (Homo sapiens, UniProt P01889, A329T/C349S/D201E/D98Y/E176V/E187L/E204Q/E69T/G107R/I218V/I90N/K202T/L105A/L119I/N104I/N87E/Q89R/Q94S/R106L/R155S/R180L/R86G/S101N/S121R/S35A/S48A/T118I/V127L/V306I/V36M/Y140S/Y91M)
[3] = biological target: T1, HLA-B*58:01; details: duplicated experiments, positive binder >40%
[4] = biological target: T2, HLA-A*68:01 (Homo sapiens, UniProt P04439, A269V/D185E/E176V/E277Q/E87N/F33Y/G231S/I121M/I166T/I218V/L180W/L300P/L318F/N151K/P208A/P217A/Q86R/R169H/T345S); details: duplicated experiments, positive binder >40%
[5] = biological target: T1, HLA-B*58:01; details: time points 0-8 h
[6] = biological target: HLA-A*30:01 (Homo sapiens, UniProt P04439, D140H/D185E/E176W/F33S/G80R/H175R/K168Q/R138E/R41S); details: duplicated experiments, positive binder >40%
[7] = biological target: HLA-A*24:02 (Homo sapiens, UniProt P04439, D101N/D140Y/D185E/E176V/E190D/F33S/G103R/G107R/I119L/I121M/I306V/K335N/L105A/L180Q/L300P/N151K/N90K/Q86E/Q94H/R106L/R138H/R89G/T104I/T345S/V100E/W191G/Y123F); details: duplicated experiments, positive binder >40%
[8] = biological target: HLA-A*02:01 (Homo sapiens, UniProt P04439, D140Y/D185E/D98H/E176V/E277Q/G131W/G231S/I119V/I121R/I166T/I218V/L300P/L318F/N151K/N90K/P208A/P217A/Q86G/Q94H/R138H/R169H/T345S); details: plate-bound monomer 0.5 µg/ml, duplicated experiments, positive binder >40%
[9] = biological target: HLA-B*07:02 (Homo sapiens, UniProt P01889); details: percent relative the binding of positive control peptide […]; duplicated experiments; positive binder >40%
[10] = biological target: T3, HLA-A*30:02 (Homo sapiens, UniProt P04439, D101N/D140H/D185E/E176R/F33S/G80R/H175R/K168Q/Q94H/R138E/R41S/V100E); details: duplicated experiments, positive binder >40%
[11] = biological target: T2, HLA-A*68:01
[12] = biological target: T2, HLA-A*68:01; details: time points 0-8 h
[13] = biological target: T3, HLA-A*30:02
[14] = biological target: T3, HLA-A*30:02; details: time points 0-8 h
[15] = percent relative the binding of positive control peptide […]
[16] = percent relative the binding of positive control peptide KTKDIVNGL
[17] = percent relative the binding of positive control peptide KYFDEHYEY
[18] = peptide titrated 10−4 to 10−9 M
[19] = percent relative the binding of positive control peptide IAMESIVIW
[20] = percent relative the binding of positive control peptide KTGGPIYKR
[21] = percent relative the binding of positive control peptide RYLKDQQLL
[22] = percent relative the binding of positive control peptide FLPSDFFPSV
[23] = percent relative the binding of positive control peptide KIQNFRVYY

Row | Substance | Bind C*07:01 [1, 15] [%] | Aff B*58:01 (ED50) [2] | Bind B*58:01 [3, 15] [%] | Bind A*68:01 [4, 15] [%] | O-rate B*58:01 (t1/2) [5] [min] | Bind B*07:02 [9] [%] | Bind A*30:02 [10, 15] [%] | O-rate A*30:02 (t1/2) [14] [h] | also measured
1 | GITYQAWQA [Rv0288_48–56] | 0 | 9e-08 M | 46 | 0 | 12 | – | – | – | –
2 | LTKLAAAWG [Rv3875_36-44] | – | – | – | – | 72 | 6 | – | – | Bind A*30:01 [6, 16]: 13%; Bind C*07:01 [1, 17]: 13%; Aff B*58:01 (ED50) [2, 18]: 7e-07 M; Bind B*58:01 [3, 19]: 47%; Bind A*68:01 [4, 20]: 21%; Bind A*24:02 [7, 21]: 0%; Bind A*02:01 [8, 22]: 15%; Bind A*30:02 [10, 23]: 0%
3 | TYQAWQAQW [Rv0288_50–58] | 0 | 1e-07 M | 119 | 0 | 60 | – | – | – | –
4 | TMAMMARDT [Rv0288_80–88] | 0 | – | 0 | 47 | – | – | – | – | Aff A*68:01 (ED50) [11]: 60 µM; O-rate A*68:01 (t1/2) [12]: 2.7 h
5 | QAALQSAWQ [Rv0288_36–44] | 7 | 5e-05 M | 62 | 17 | 30 | – | – | – | –
6 | AAGGHNAVF | 39 | 2e-07 M | 101 | 0 | 42 | 9 | 67 | – | Bind A*30:01 [6, 15]: 15%; Bind A*24:02 [7, 15]: 34%; Bind A*02:01 [8, 15]: 31%
7 | NGT HSWEYW | 3 | 4E -08 M | 74 | 35 | 114 | 4 | 83 | 1.6 | Bind A*30:01 [6, 15]: 0%; Aff A*30:02 (ED50) [13]: 1000 nM; Bind A*24:02 [7, 15]: 42%; Bind A*02:01 [8, 15]: 0%
8 | RAYHSMSST [Rv0288_67–75m1] | 0 | 2e-08 M | 32 | – | 24 | 14 | 7 | – | –
9 | MSQIMYNYP [Rv0288_1–9] | 10 | 4e-06 M | 57 | 29 | 66 | – | – | – | –
10 | SLTKLAAAW [Rv3875_35–43] | – | – | – | – | 54 | 5 | – | – | Bind A*30:01 [6, 16]: 6%; Bind C*07:01 [1, 17]: 8%; Aff B*58:01 (ED50) [2, 18]: 4e-07 M; Bind B*58:01 [3, 19]: 48%; Bind A*68:01 [4, 20]: 10%; Bind A*24:02 [7, 21]: 12%; Bind A*02:01 [8, 22]: 47%; Bind A*30:02 [10, 23]: 50%
11 | YQAWQAQWN [Rv0288_51–59] | 0 | 2e-06 M | 52 | 23 | 120 | – | – | – | –
12 | TGITYQAWQ [Rv0288_47–55] | 0 | 4e-06 M | 40 | 8 | 48 | – | – | – | –
13 | ATATELNNA [Rv3875_60–68] | – | – | – | – | – | 12 | – | 3.8 | Bind A*30:01 [6, 16]: 0%; Bind C*07:01 [1, 17]: 0%; Aff A*30:02 (ED50) [13, 18]: 300 nM; Bind B*58:01 [3, 19]: 0%; Bind A*68:01 [4, 20]: 0%; Bind A*24:02 [7, 21]: 0%; Bind A*02:01 [8, 22]: 31%; Bind A*30:02 [10, 23]: 67%
14 | NLKFQDAYN | 7 | – | 0 | 9 | – | 0 | 123 | 0.4 | Bind A*30:01 [6, 15]: 0%; Aff A*30:02 (ED50) [13]: 10000 nM; Bind A*24:02 [7, 15]: 0%; Bind A*02:01 [8, 15]: 8%
15 | NTMAMMARD [Rv0288_79–87] | 0 | – | 0 | 67 | – | – | – | – | Aff A*68:01 (ED50) [11]: 70 µM; O-rate A*68:01 (t1/2) [12]: 2.3 h
16 | AAAWGGSGS [Rv3875_40-48] | – | – | – | – | – | 4 | – | 1.1 | Bind A*30:01 [6, 16]: 29%; Bind C*07:01 [1, 17]: 29%; Aff A*30:02 (ED50) [13, 18]: 5 nM; Bind B*58:01 [3, 19]: 8%; Bind A*68:01 [4, 20]: 15%; Bind A*24:02 [7, 21]: 0%; Bind A*02:01 [8, 22]: 8%; Bind A*30:02 [10, 23]: 129%
17 | SSTHEANTM [Rv0288_73–81] | 7 | 2e-06 M | 41 | 0 | 48 | – | – | – | –
18 | AAWGGSGSE [Rv3875_41–49] | – | – | – | – | – | 4 | – | 1.5 | Bind A*30:01 [6, 16]: 18%; Bind C*07:01 [1, 17]: 29%; Aff A*30:02 (ED50) [13, 18]: 300 nM; Bind B*58:01 [3, 19]: 9%; Bind A*68:01 [4, 20]: 29%; Bind A*24:02 [7, 21]: 2%; Bind A*02:01 [8, 22]: 29%; Bind A*30:02 [10, 23]: 167%
19 | GQSSFYSDW | 0 | – | 62 | 0 | – | 0 | 71 | 3.3 | Bind A*30:01 [6, 15]: 0%; Aff A*30:02 (ED50) [13]: 20 nM; Bind A*24:02 [7, 15]: 76%; Bind A*02:01 [8, 15]: 27%
20 | AGCQTYKW E | 0 | 2e-07 M | 121 | 4 | 120 | 2 | 18 | – | Bind A*30:01 [6, 15]: 3%; Bind A*24:02 [7, 15]: 31%; Bind A*02:01 [8, 15]: 12%
21 | SAWQGDTGI [Rv0288_41–49] | 12 | 3e-08 M | 46 | 30 | 36 | – | – | – | –
22 | DTGITYQAW [Rv0288_46–54] | 0 | 1e-06 M | 41 | 7 | 138 | – | – | – | –
23 | KFQDAYNAA | 0 | – | 0 | 0 | – | 0 | 113 | 0.7 | Bind A*30:01 [6, 15]: 0%; Aff A*30:02 (ED50) [13]: 8000 nM; Bind A*24:02 [7, 15]: 0%; Bind A*02:01 [8, 15]: 19%
